Results: patent US20160039825A1 (BIOGEN MA INC., priority 2013, published 2016)

These compounds were tested against T1, Human ATX protein (Homo sapiens, UniProt Q13822) (assay: Autotaxin (ATX) assay, FRET with FS-3 substrate). Conditions: 10 uM compound.
T1 construct: made in house
Assay type: biochemical
Method in brief: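 In-house human ATX (1.0 μg/mL final) was preincubated with compound for 30 min at room temperature in Tris buffer pH 7.4 with NaCl, KCl, CaCl2, MgCl2 and 1 mg/mL fatty acid-free BSA. FS-3 (2 μM final) was added and the plate shaken 2 h at room temperature in the dark. Fluorescence was read at ex 485/em 538 nm.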

In the case of `O=C(OCc1cc(C(F)(F)F)cc(C(F)(F)F)c1)N1CCn2nc(Br)cc2C1` [Example 407], the inhibition at 10 µM is reported as 50%.

Same assay, conditions: greater than 10 μM

`CCOC(=O)C1CN(C(=O)OCc2cc(C(F)(F)F)cc(C(F)(F)F)c2)Cc2ccnn21` (stereo not drawn) [Example 405] and `COC(=O)C1CN(C(=O)OCc2cc(C(F)(F)F)cc(C(F)(F)F)c2)Cc2ccnn2C1` (stereo not drawn) [Example 406] cannot be ordered by IC50: over 10 µM for the first, over 10 µM for the second.

Same assay, conditions: upper bound bins (no greater than 100, 250 or 500 nM); FS-3 2 μM, ATX 1.0 μg/mL

`CC(C)C(Nc1cc2n(n1)CCCN(C(=O)OCc1cc(C(F)(F)F)cc(C(F)(F)F)c1)C2)C(=O)O` (stereo not drawn) [Example 363] and `CC(C(=O)O)c1cc2n(n1)CCCN(C(=O)OCc1cc(C(F)(F)F)cc(C(F)(F)F)c1)C2` (stereo not drawn) [Example 387, 2-(5-(((3,5-bis(Trifluoromethyl)benzyl)oxy)carbonyl)-5,6,7,8-tetrahydro-4H-pyrazolo[1,5-a][1,4]diazepin-2-yl)propanoic acid] cannot be ordered by IC50: at most 0.1 µM for the first, at most 0.1 µM for the second.

`O=C(OCc1cc(C(F)(F)F)cc(C(F)(F)F)c1)N1CCCn2nc(-c3ccncc3)cc2C1` [Example 367] and `O=C(OCc1cc(Cl)cc(C(F)(F)F)c1)N1CCCn2nc(-c3ccncc3)cc2C1` [Example 369, 3-chloro-5-(trifluoromethyl)benzyl 2-(pyridin-4-yl)-7,8-dihydro-4H-pyrazolo[1,5-a][1,4]diazepine-5(6H)-carboxylate] cannot be ordered by IC50: at most 0.1 µM for the first, at most 0.1 µM for the second.

`Cc1cc(-c2cc3n(n2)CCCN(C(=O)OCc2cc(C(F)(F)F)cc(C(F)(F)F)c2)C3)ccn1` [Example 368] and `Cc1cc(-c2cc3n(n2)CCCN(C(=O)OCc2cc(Cl)cc(C(F)(F)F)c2)C3)ccn1` [Example 370] cannot be ordered by IC50: at most 0.1 µM for the first, at most 0.1 µM for the second.

`CN1CC=C(c2cc3n(n2)CCCN(C(=O)OCc2cc(C(F)(F)F)cc(C(F)(F)F)c2)C3)CC1` [Example 371, 3,5-bis(trifluoromethyl)benzyl 2-(1-methyl-1,2,3,6-tetrahydropyridin-4-yl)-7,8-dihydro-4H-pyrazolo[1,5-a][1,4]diazepine-5(6H)-carboxylate] and `O=C(OCc1cc(C(F)(F)F)cc(C(F)(F)F)c1)N1CCCn2nc(C3=CCNCC3)cc2C1` [Example 373, 3,5-bis(trifluoromethyl)benzyl 2-(1,2,3,6-tetrahydropyridin-4-yl)-7,8-dihydro-4H-pyrazolo[1,5-a][1,4]diazepine-5(6H)-carboxylate] cannot be ordered by IC50: at most 0.1 µM for the first, at most 0.1 µM for the second.

`CN1CCC(c2cc3n(n2)CCCN(C(=O)OCc2cc(C(F)(F)F)cc(C(F)(F)F)c2)C3)CC1` [Example 372, 3,5-bis(trifluoromethyl)benzyl 2-(1-methylpiperidin-4-yl)-7,8-dihydro-4H-pyrazolo[1,5-a][1,4]diazepine-5(6H)-carboxylate] and `CN1CCC(c2cc3n(n2)CCCN(C(=O)OCc2cc(C(F)(F)F)cc(C(F)(F)F)c2)C3)C1` (stereo not drawn) [Example 385] cannot be ordered by IC50: at most 0.1 µM for the first, at most 0.25 µM for the second.

`CC(C)(C)OC(=O)N1CCC(c2cc3n(n2)CCCN(C(=O)OCc2cc(C(F)(F)F)cc(C(F)(F)F)c2)C3)CC1` [Example 374, 3,5-bis(trifluoromethyl)benzyl 2-(1-(tert-butoxycarbonyl)piperidin-4-yl)-7,8-dihydro-4H-pyrazolo[1,5-a][1,4]diazepine-5(6H)-carboxylate] and `CC(C)(C)OC(=O)N1CCC(c2cc3n(n2)CCN(C(=O)OCc2cc(C(F)(F)F)cc(C(F)(F)F)c2)C3)CC1` [Example 398, 3,5-bis(trifluoromethyl)benzyl 2-(1-(tert-butoxycarbonyl)piperidin-4-yl)-6,7-dihydropyrazolo[1,5-a]pyrazine-5(4H)-carboxylate] cannot be ordered by IC50: at most 0.1 µM for the first, at most 0.1 µM for the second.

`O=C(OCc1cc(C(F)(F)F)cc(C(F)(F)F)c1)N1CCCn2nc(C3CCNCC3)cc2C1` [Example 375, 3,5-bis(trifluoromethyl)benzyl 2-(piperidin-4-yl)-7,8-dihydro-4H-pyrazolo[1,5-a][1,4]diazepine-5(6H)-carboxylate] and `O=C(OCc1cc(C(F)(F)F)cc(C(F)(F)F)c1)N1CCCn2nc(C3CCNC3)cc2C1` (stereo not drawn) [Example 384] cannot be ordered by IC50: at most 0.1 µM for the first, at most 0.25 µM for the second.

`O=C(OCc1cc(C(F)(F)F)cc(C(F)(F)F)c1)N1CCCn2nc(C3=CC4CCC(C3)N4)cc2C1` (stereo not drawn) [Example 376] and `CN1C2C=C(c3cc4n(n3)CCCN(C(=O)OCc3cc(C(F)(F)F)cc(C(F)(F)F)c3)C4)CC1CC2` (stereo not drawn) [Example 379] cannot be ordered by IC50: at most 0.1 µM for the first, at most 0.1 µM for the second.

`O=C(OCc1cc(C(F)(F)F)cc(C(F)(F)F)c1)N1CCCn2nc(C3CC4CCC(C3)N4)cc2C1` (stereo not drawn) [Example 377] and `CN1C2CCC1CC(c1cc3n(n1)CCCN(C(=O)OCc1cc(C(F)(F)F)cc(C(F)(F)F)c1)C3)C2` (stereo not drawn) [Example 381] cannot be ordered by IC50: at most 0.1 µM for the first, at most 0.1 µM for the second.

`CC1C=C(c2cc3n(n2)CCCN(C(=O)OCc2cc(C(F)(F)F)cc(C(F)(F)F)c2)C3)CC(C)N1` (stereo not drawn) [Example 378] and `CC1CC(c2cc3n(n2)CCCN(C(=O)OCc2cc(C(F)(F)F)cc(C(F)(F)F)c2)C3)CC(C)N1` (stereo not drawn) [Example 382] cannot be ordered by IC50: at most 0.1 µM for the first, at most 0.1 µM for the second.

`O=C(OCc1cc(C(F)(F)F)cc(C(F)(F)F)c1)N1CCCn2nc(C3CCCNC3)cc2C1` (stereo not drawn) [Example 380] and `CC(C)(C)OC(=O)N1CCC(c2cc3n(n2)CCCN(C(=O)OCc2cc(C(F)(F)F)cc(C(F)(F)F)c2)C3)C1` (stereo not drawn) [Example 383] cannot be ordered by IC50: at most 0.1 µM for the first, at most 0.1 µM for the second.

`O=C(O)Cc1cc2n(n1)CCCN(C(=O)OCc1cc(C(F)(F)F)cc(C(F)(F)F)c1)C2` [Example 386, 2-(5-(((3,5-bis(Trifluoromethyl)benzyl)oxy)carbonyl)-5,6,7,8-tetrahydro-4H-pyrazolo[1,5-a][1,4]diazepin-2-yl)acetic acid] and `NC(C(=O)O)c1cc2n(n1)CCCN(C(=O)OCc1cc(C(F)(F)F)cc(C(F)(F)F)c1)C2` (stereo not drawn) [Example 390, 2-Amino-2-(5-(((3,5-bis(trifluoromethyl)benzyl)oxy)carbonyl)-5,6,7,8-tetrahydro-4H-pyrazolo[1,5-a][1,4]diazepin-2-yl)acetic acid] cannot be ordered by IC50: at most 0.1 µM for the first, at most 0.1 µM for the second.

`CC(C)(C(=O)O)c1cc2n(n1)CCCN(C(=O)OCc1cc(C(F)(F)F)cc(C(F)(F)F)c1)C2` [Example 388] and `O=C(O)c1cc2n(n1)CCN(C(=O)OCc1cc(C(F)(F)F)cc(C(F)(F)F)c1)C2` [Example 419] cannot be ordered by IC50: at most 0.1 µM for the first, at most 0.25 µM for the second.

`Cc1nc(-c2cc3n(n2)CCCN(C(=O)OCc2cc(C(F)(F)F)cc(C(F)(F)F)c2)C3)no1` [Example 392, 3,5-bis(Trifluoromethyl)benzyl 2-(5-methyl-1,2,4-oxadiazol-3-yl)-7,8-dihydro-4H-pyrazolo[1,5-a][1,4]diazepine-5(6H)-carboxylate] and `O=C(O)Cn1cc(-c2cc3n(n2)CCCN(C(=O)OCc2cc(C(F)(F)F)cc(C(F)(F)F)c2)C3)cn1` [Example 412] cannot be ordered by IC50: at most 0.1 µM for the first, at most 0.1 µM for the second.

`CN1CCN(c2cc3n(n2)CCN(C(=O)OCc2cc(C(F)(F)F)cc(C(F)(F)F)c2)C3)CC1` [Example 393, 3,5-bis(Trifluoromethyl)benzyl 2-(4-methylpiperazin-1-yl)-6,7-dihydropyrazolo[1,5-a]pyrazine-5(4H)-carboxylate] and `O=C(OCc1cc(C(F)(F)F)cc(C(F)(F)F)c1)N1CCn2nc(N3CCNCC3)cc2C1` [Example 394, 3,5-bis(trifluoromethyl)benzyl 2-(piperazin-1-yl)-6,7-dihydropyrazolo[1,5-a]pyrazine-5(4H)-carboxylate] cannot be ordered by IC50: at most 0.1 µM for the first, at most 0.1 µM for the second.

`CC(N)c1cc2n(n1)CCN(C(=O)OCc1cc(C(F)(F)F)cc(C(F)(F)F)c1)C2` (stereo not drawn) [Example 395, 3,5-bis(Trifluoromethyl)benzyl 2-(1-aminoethyl)-6,7-dihydropyrazolo[1,5-a]pyrazine-5(4H)-carboxylate] and `CC(O)c1cc2n(n1)CCN(C(=O)OCc1cc(C(F)(F)F)cc(C(F)(F)F)c1)C2` (stereo not drawn) [Example 396, 3,5-bis(Trifluoromethyl)benzyl 2-(1-hydroxyethyl)-6,7-dihydropyrazolo[1,5-a]pyrazine-5(4H)-carboxylate] cannot be ordered by IC50: at most 0.1 µM for the first, at most 0.1 µM for the second.

`O=C(O)c1nn2c(c1F)CN(C(=O)OCc1cc(Cl)cc(C(F)(F)F)c1)CCC2` [Example 399, 5-(((3-chloro-5-(trifluoromethyl)benzyl)oxy)carbonyl)-3-fluoro-5,6,7,8-tetrahydro-4H-pyrazolo[1,5-a][1,4]diazepine-2-carboxylic acid] and `O=C(O)c1cc2n(n1)CCN(C(=O)OCc1cc(Cl)cc(C(F)(F)F)c1)C2` [Example 410, 5-(((3-chloro-5-(trifluoromethyl)benzyl)oxy)carbonyl)-4,5,6,7-tetrahydropyrazolo[1,5-a]pyrazine-2-carboxylic acid] cannot be ordered by IC50: at most 0.1 µM for the first, at most 0.25 µM for the second.

`CON(C)C(=O)c1cc2n(n1)CCN(C(=O)OCc1cc(C(F)(F)F)cc(C(F)(F)F)c1)C2` [Example 400, 3,5-bis(trifluoromethyl)benzyl 2-(methoxy(methyl)carbamoyl)-6,7-dihydropyrazolo[1,5-a]pyrazine-5(4H)-carboxylate] and `CC(=O)c1cc2n(n1)CCN(C(=O)OCc1cc(C(F)(F)F)cc(C(F)(F)F)c1)C2` [Example 401, 3,5-bis(trifluoromethyl)benzyl 2-acetyl-6,7-dihydropyrazolo[1,5-a]pyrazine-5(4H)-carboxylate] cannot be ordered by IC50: at most 0.1 µM for the first, at most 0.5 µM for the second.

`CCOC(=O)c1cc2n(n1)CCN(C(=O)OCc1cc(Cl)cc(C(F)(F)F)c1)C2` [Example 402, 5-(3-chloro-5-(trifluoromethyl)benzyl) 2-ethyl 6,7-dihydropyrazolo[1,5-a]pyrazine-2,5(4H)-dicarboxylate] and `CCOC(=O)c1cc2n(n1)CCCN(C(=O)OCc1cc(Cl)cc(C(F)(F)F)c1)C2` [Example 404] cannot be ordered by IC50: at most 0.1 µM for the first, at most 0.1 µM for the second.

`CCOC(=O)c1cc2n(n1)CCN(C(=O)OCc1cc(C(F)(F)F)cc(C(F)(F)F)c1)C2` [Example 403] and `CCOC(=O)c1cc2n(n1)CC(O)CN(C(=O)OCc1cc(C(F)(F)F)cc(C(F)(F)F)c1)C2` (stereo not drawn) [Example 409] cannot be ordered by IC50: at most 0.1 µM for the first, at most 0.1 µM for the second.

`O=C(O)C1CN(C(=O)OCc2cc(C(F)(F)F)cc(C(F)(F)F)c2)Cc2ccnn2C1` (stereo not drawn) [Example 415] and `O=C(O)C1CCN(C(=O)c2cc3n(n2)CCN(C(=O)OCc2cc(C(F)(F)F)cc(C(F)(F)F)c2)C3)CC1` [Example 418] cannot be ordered by IC50: at most 0.25 µM for the first, at most 0.1 µM for the second.
